Experiments:
[1] = test system: subset of the NCI-60 cell line panel plus FG, AsPC1, CaPan2 (31 cell lines); assay: Tumor cell line drug profiling, CellTiter Glo, whole panel; format: cell-based; settings: Homo sapiens, 72 h, read-out: IC50 values across the cell line panel
Description: (§1) We tested the cytotoxicity of representative compounds from the seven EXO1i scaffolds against a subset of the NCI-60 cell line panel along with three additional pancreatic cell lines (FG, AsPC1, and CaPan2). In general, cells were seeded in 384-well tissue culture-treated plates overnight and treated with various concentrations of each hit compound (a serial 3-fold dilution from 50 μM for all tested hits). Each concentration was performed in duplicate. Cell viability was then measured by CellTiter Glo (Promega) after 72 h of treatment.

FEN1 = molecular target: T1, FEN1 (Homo sapiens, UniProt P39748); assay: Analogous FRET-based counter screen with purified FEN1; format: biochemical; settings: FRET-based assay, maximum inhibitor concentration 100 μM
T1 construct: made in house
Description: Data were normalized by subtracting the relative fluorescence unit (RFU) of the blank sample from that of each EXO1-containing reaction. The relative activity of individual compounds was subsequently calculated by setting the corrected RFU of EXO1 with DMSO as 100% and comparing the corrected RFU for each condition to the DMSO value. Each assay was performed by sequentially adding experimental compounds, the EXO1 enzyme, and the DNA substrate to minimize starting differences. […] Following IC50 screening, an analogous FRET-based assay was performed using purified FEN1 to assess the EXO1 specificity of each compound.
For subsequent hit confirmation, 84 compounds from the primary screen were picked from our internal stock and subjected to a dose-dependent response assay starting at 100 μM with 3-fold serial dilution. To analyze the data from the dose-dependent response assay, IC50 values for each hit were calculated through nonlinear regression analysis using GraphPad Prism 10 (GraphPad Software, Inc.). […] Subsequently, a counter screen was performed to eliminate potential false-positive hits. To accomplish this, we established an analogous FRET assay using the purified FEN1 enzyme in place of EXO1.

MDA-MB-436 cells = assay: S-phase PARylation immunofluorescence; format: cell-based, human; settings: MDA-MB-436 BRCA1− and BRCA1+ cells, 10 or 50 μM overnight
Description: (b) Quantification of the relative PARylation per nucleus from panel a. […] Strong PARylation foci are observed in BRCA1– cells. […] (d) Quantification of the relative PARylation per nucleus from panel c.
Cells were seeded at a density of 3× 10^5 cells per well in 12-well plates with preplaced coverslips and treated with or without various inhibitor treatments overnight. Cells were then incubated with EdU for 30 min before collection. For PARylation analysis, cells were permeabilized with 0.1% Triton X100, fixed with 4% paraformaldehyde, blocked with the Image-iT FX signal enhancer (Invitrogen), and incubated (1.5 h, RT) with the indicated primary antibodies (PAR/pADPr Antibody; Biotechne). The cells were then washed with PBS buffer and incubated (1 h, RT) with the corresponding secondary antibodies (1:200, Invitrogen). Subsequently, the fixed cells were incubated with the Click-iT reaction mix (100 mM Tris-HCl pH 8.5, […], 1 mM CuSO4, and 100 mM ascorbic acid (Sigma-Aldrich)) for 1 h at RT. The slides were then washed with the PBS buffer, counterstained with DAPI, and analyzed with a fluorescence microscope (Zeiss Observer Z1). […] The slides were then washed with the PBS buffer, incubated with the Click-iT reaction mix for EdU as aforementioned, counterstained with DAPI, and analyzed with a fluorescence microscope (Zeiss Observer Z1).

MCF7 (B3) = assay: Cell line drug profiling, CellTiter Glo; format: cell-based; settings: Homo sapiens, Breast, 72 h
Description: as §1

MCF7 = assay: Cell line drug profiling, CellTiter Glo; format: cell-based; settings: Homo sapiens; MCF7, Breast, 72 h
Description: as §1

AsPC1 = assay: Cell line drug profiling, CellTiter Glo; format: cell-based; settings: Homo sapiens; AsPC1, Pancreatic, 72 h
Description: as §1

UO-31 = assay: Cell line drug profiling, CellTiter Glo; format: cell-based; settings: Homo sapiens; UO-31, Kidney, 72 h
Description: as §1

ACHN = assay: Cell line drug profiling, CellTiter Glo; format: cell-based; settings: Homo sapiens, Kidney, 72 h
Description: as §1

SK-MEL-28 = assay: Cell line drug profiling, CellTiter Glo; format: cell-based; settings: Homo sapiens; SK-MEL-28, Melanoma, 72 h
Description: as §1

MDA-MB-231 = assay: Cell line drug profiling, CellTiter Glo; format: cell-based; settings: Homo sapiens; MDA-MB-231, Breast, 72 h
Description: as §1

FG = assay: Cell line drug profiling, CellTiter Glo; format: cell-based; settings: Homo sapiens, Pancreatic, 72 h
Description: as §1

HL-60(TB) = assay: Cell line drug profiling, CellTiter Glo; format: cell-based; settings: Homo sapiens, Leukemia, 72 h
Description: as §1

CaPan2 = assay: Cell line drug profiling, CellTiter Glo; format: cell-based; settings: Homo sapiens, Capan-2; CaPan2, Pancreatic, 72 h
Description: as §1

BT549 = assay: Cell line drug profiling, CellTiter Glo; format: cell-based; settings: Homo sapiens, BT-549; BT549, Breast, 72 h
Description: as §1

CCRF-CEM = assay: Cell line drug profiling, CellTiter Glo; format: cell-based; settings: Homo sapiens, Leukemia, 72 h
Description: as §1

HS 578T = assay: Cell line drug profiling, CellTiter Glo; format: cell-based; settings: Homo sapiens, Breast, 72 h
Description: as §1

OVCAR-3 = assay: Cell line drug profiling, CellTiter Glo; format: cell-based; settings: Homo sapiens; OVCAR-3, Ovarian, 72 h
Description: as §1

SF-268 = assay: Cell line drug profiling, CellTiter Glo; format: cell-based; settings: Homo sapiens; SF-268, Central Nervous System, 72 h
Description: as §1

T1 sequence (P39748 whole entry): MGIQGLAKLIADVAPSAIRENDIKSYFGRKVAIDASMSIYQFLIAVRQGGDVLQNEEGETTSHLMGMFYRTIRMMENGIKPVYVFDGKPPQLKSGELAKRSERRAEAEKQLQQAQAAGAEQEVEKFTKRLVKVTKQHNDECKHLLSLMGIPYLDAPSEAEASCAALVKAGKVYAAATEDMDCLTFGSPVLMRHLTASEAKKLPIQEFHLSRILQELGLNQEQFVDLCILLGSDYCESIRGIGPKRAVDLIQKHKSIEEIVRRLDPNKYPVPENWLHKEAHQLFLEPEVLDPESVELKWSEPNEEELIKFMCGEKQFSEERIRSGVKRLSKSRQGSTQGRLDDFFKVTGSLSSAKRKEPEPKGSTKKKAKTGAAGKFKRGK

SMILES	IC50 [1]	IC50 (FEN1)	S-phase PARylation (MDA-MB-436 cells)	IC50 (MCF7 (B3))	IC50 (MCF7)	IC50 (AsPC1)	IC50 (UO-31)	IC50 (ACHN)	IC50 (SK-MEL-28)	IC50 (MDA-MB-231)	IC50 (FG)	IC50 (HL-60(TB))	IC50 (CaPan2)	IC50 (BT549)	IC50 (CCRF-CEM)	IC50 (HS 578T)	IC50 (OVCAR-3)	IC50 (SF-268)
COC(=O)c1nc(-c2ccc(OC)cc2)nc(O)c1O [C200]	> 50 µM	> 100 µM	no effect	> 50 µM	> 50 µM	> 50 µM	> 50 µM	> 50 µM	> 50 µM	> 50 µM	> 50 µM	> 50 µM	> 50 µM	> 50 µM	27.4 µM	> 50 µM	> 50 µM	> 50 µM
Cc1cccc(N2CCN(c3ccc(NS(=O)(=O)c4ccccc4)c(C(=O)O)c3)CC2)c1C [F684]	15 to 25 µM	> 100 µM	additive effect	23.6 µM	20.1 µM	> 50 µM	20.6 µM	28.9 µM	38 µM	28.6 µM	27.5 µM	20.1 µM	48.1 µM	12 µM	14.6 µM	18.2 µM	10.9 µM	38.6 µM

Source: publication PMC12186255, “Discovery and Characterization of Small Molecule Inhibitors Targeting Exonuclease 1 for Homologous Recombination-Deficient Cancer Therapy” (ACS Chemical Biology, 2025)
